Data: the SangsterLogP compilation

Assays:
[1] = method code SF-AS, from DOI: 10.1584/jpestics.8.69
[2] = not given; remark: listed apart in the source
[3] = method code SF-AS, from DOI: 10.1016/s0020-1693(00)85781-3
[4] = method code SF-HPLC, from Peips, M.; Sikk, P.; Aaviksaar, A. (1986). Hydrophobic interaction in the active sites of serine proteases from thermoactinomycetes. Org. React., 23(3)261-271.; details: pH 2.2
[5] = not given; remark: listed apart in the source
[6] = method code SF-AS, from Kishida, K.; Otori, T. (1980). A quantitative study on the relationship between transcorneal permeability of drugs and their hydrophobicity. Jpn J Ophthalmol, 24(3)251-259.; details: pH 7.4
[7] = method code SF-AS, from DOI: 10.1016/0041-008x(67)90079-8
[8] = not given; remark: listed apart in the source
[9] = method code SF-AS, from DOI: 10.1016/0304-4165(87)90236-4, PMID: 2889474
[10] = method code SF-AS, from PMID: 7149911; details: pH 8.9
[11] = method code SF, from DOI: 10.1023/a:1016286026462, PMID: 8570535
[12] = not given; remark: listed apart in the source
[13] = method code SF-AS, from DOI: 10.1248/bpb1978.4.759, PMID: 7320829
[14] = method code SF-HPLC, from DOI: 10.1016/0378-5173(88)90064-6; details: pH 7.4
[15] = not given; remark: listed apart in the source
[16] = method code …, from Wiggins, H.; Karcher, A.; Michael Wilson, J.; Robb, I. (2008). Determining Octanol/Water Partitioning Coefficients for Industrial Surfactants. Proc. 15th Annual International Petroleum & Biofuels …

SMILES: ClC(Cl)(Cl)C(c1ccccc1)c1ccccc1
- logP [1]: 4.87

SMILES: c1ccc2nc3ccc4ccccc4c3cc2c1
- logP: 4.27

SMILES: C=CCOc1ccccc1OCC(CNC(C)C)OC(=O)C1CC1 (stereo unspecified)
- logP [2]: 3.01

SMILES: CC(C)(C)c1ccc2c(c1)COCCOCCOCCOCCOCc1cc(C(C)(C)C)ccc1COCCOCCOCCOCCOC2
- logP [3]: 3.32

SMILES: COC(=O)[C@H](Cc1ccc(O)cc1)NC(C)=O
- logD [4]: 0.33

SMILES: Cc1ccccc1N1C(=O)c2cc(S(N)(=O)=O)c(Cl)cc2NC1C (stereo unspecified)
- logP [5]: 1.8

SMILES: C=CCOc1ccccc1OCC(CNC(C)C)OC(C)=O (stereo unspecified)
- logP [2]: 3.82

SMILES: COc1ccc(OC)c(N)c1
- logD [6]: 1.2

SMILES: C=CCOc1ccccc1OCC(CNC(C)C)OC(=O)C(C)(C)C (stereo unspecified)
- logP [2]: 3.54

SMILES: Clc1cnc(Cl)c(Cl)c1
- logP [7]: 3.11

SMILES: COc1ccc(C(c2ccc(OC)cc2)C(C)[N+](=O)[O-])cc1 (stereo unspecified)
- logP [1]: 3.87

SMILES: Clc1cc2oc3c(Cl)cc(Cl)c(Cl)c3c2c(Cl)c1Cl
- logP [8]: 6.82

SMILES: CC(=O)c1ccc(N)cc1
- logD [6]: 0.83

SMILES: C[C@@H]1C[C@H]2OC(=O)[C@@H](C)[C@H]2[C@H](O)[C@]2(C)C(=O)C=C[C@@H]12
- logP [9]: 0.53

SMILES: CCCCC(NC(C)=O)C(=O)O (stereo unspecified)
- logD [4]: 0.33

SMILES: CN(N=O)C(=O)Nc1ccc(F)cc1
- logD [10]: 1.88

SMILES: CCc1ccc(N)cc1
- logD [6]: 1.96

SMILES: Clc1ccc(Cl)c(Cl)n1
- logP [7]: 2.77

SMILES: CCN(N=O)C(=O)Nc1ccccc1
- logD [10]: 2.25

SMILES: CCOc1ccc(N)cc1
- logD [6]: 1.24

SMILES: CCC(C(c1ccc(OC)cc1)c1ccc(OC)cc1)[N+](=O)[O-] (stereo unspecified)
- logP [1]: 4.45

SMILES: Clc1cncc(Cl)c1
- logP [7]: 2.56

SMILES: C=CCOc1ccccc1OCC(CNC(C)C)OC(=O)CC (stereo unspecified)
- logP [2]: 3.76

SMILES: C=C1C(=O)O[C@@H]2C[C@@H](C)[C@@H]3C4CC(=O)[C@]3(C[C@H]12)[C@@]1(C4)C(=O)O[C@@H]2C[C@@H](C)[C@@H]3C=CC(=O)[C@@]3(C)[C@@H](O)[C@@H]21
- logP [9]: 1.66

SMILES: CCC(=O)C(CC(C)N(C)C)(c1ccccc1)c1ccccc1 (stereo unspecified)
- logP [5]: 3.93

SMILES: COc1ccc(C(=O)c2ccccc2)c(O)c1
- logP [11]: 3.82

SMILES: C=C1C(=O)O[C@@H]2C[C@@H](C)[C@@H]3C=CC(=O)[C@@]3(C)[C@@H](OC(=O)CC(=O)O[C@H]3[C@@H]4C(=C)C(=O)O[C@@H]4C[C@@H](C)[C@@H]4C=CC(=O)[C@]43C)[C@H]12
- logP [9]: 1.33

SMILES: O=C(CCCCC(CO[N+](=O)[O-])O[N+](=O)[O-])Oc1ccccc1C(=O)O (stereo unspecified)
- logP [12]: 2.97

SMILES: O=C1NC(=O)C(c2ccccc2)(c2ccc(O)cc2)N1 (stereo unspecified)
- logP [13]: 1.72

SMILES: CC1=C2[C@@H](C[C@@H](C)[C@@H]3C=CC(=O)[C@@]3(C)[C@H]2O)OC1=O
- logP [9]: 1.13

SMILES: Brc1cc2oc3cc(Br)c(Br)cc3c2cc1Br
- logP [8]: 5.98

SMILES: O=C1NC(=O)C(c2ccccc2)(c2ccccc2)N1S(=O)(=O)c1ccccc1
- logD ([13]; pH 7.0): 1.93

SMILES: Nc1ccc(Cc2ccc(N)cc2)cc1
- logD [6]: 1.62

SMILES: CC(=O)c1ccc2cc(C(C)C(=O)OCC(=O)N(C)CC(N)=O)ccc2c1 (stereo unspecified)
- logD [14]: 1.37

SMILES: COc1ccc(C(C)c2ccc(OC)cc2)cc1
- logP [1]: 4.52

SMILES: CC(=O)c1ccc2cc(C(C)C(=O)OCC(N)=O)ccc2c1 (stereo unspecified)
- logD [14]: 2.06

SMILES: CCN(CC)C(=O)COC(=O)c1ccccc1O
- logD [14]: 1.99

SMILES: Clc1cccc(Cl)n1
- logP [7]: 2.15

SMILES: Clc1cccnc1Cl
- logP [7]: 2.11

SMILES: Cn1c(=O)nc(-c2ccccc2)c2cc(Cl)ccc21
- logP [15]: 2.38

SMILES: COc1cc(C(C)(C)C)c(O)c(C(C)(C)C)c1
- logP [11]: 4.64

SMILES: O=C(CCCCO[N+](=O)[O-])Oc1ccccc1C(=O)O
- logP [12]: 2.21

SMILES: COc1ccc(CCN(C)CCCC2(c3ccc(OC)c(OC)c3)S(=O)(=O)CCCS2(=O)=O)cc1OC
- logP [5]: 2.6

SMILES: CC(C)(CO[N+](=O)[O-])C(=O)Oc1ccccc1C(=O)O
- logP [12]: 2.32

SMILES: Clc1cc2oc3cc(Cl)c(Cl)cc3c2cc1Cl
- logP [8]: 5.83

SMILES: Brc1cc2oc3c(Br)c(Br)c(Br)cc3c2cc1Br
- logP [8]: 7.04

SMILES: CN(N=O)C(=O)Nc1ccccc1
- logD [10]: 1.72

SMILES: c1ccc2c(c1)cnc1ccccc12
- logP: 3.3

SMILES: CCCCCCC(NC(C)=O)C(=O)OC (stereo unspecified)
- logD [4]: 1.7

SMILES: CN(N=O)C(=O)Oc1cccc2ccccc12
- logD [10]: 2.85

SMILES: CC1(C)NC(=O)NC1=O
- logP [13]: -0.48

SMILES: CCCCCCCCOC(=O)c1ccc(N(C)C)cc1
- logP [11]: 5.75

SMILES: CCCCCCCCCCOCCOCCOCCOCCOCCOCCOCCOCCO
- logP [16]: 3.09

SMILES: Cn1c(=O)nc(-c2ccccc2)c2cc(F)ccc21
- logP [15]: 1.87

SMILES: CCC1(c2ccccc2)C(=O)NC(=O)N1S(=O)(=O)c1ccccc1 (stereo unspecified)
- logP [13]: 2.44

SMILES: CCCCCCCCOCCOCCOCCOCCOCCO
- logP [16]: 2.43

SMILES: CC(C)c1ccc(C(=O)CC(=O)c2ccccc2)cc1
- logP [11]: 6.51

SMILES: CCCCCCCCCCCCOCCOCCOCCOCCOCCOCCOCCO
- logP [16]: 4.59

SMILES: c1cnc2c(c1)cc1ccc3cccc4ccc2c1c34
- logP: 5.35

SMILES: Cn1c(=O)nc(-c2ccccc2)c2cc(C(F)(F)F)ccc21
- logP [15]: 2.69

SMILES: COc1ccc(C(c2ccc(OC)cc2)C(F)(F)F)cc1
- logP [1]: 4.76

SMILES: CC(C)N(N=O)C(=O)Nc1ccccc1
- logD [10]: 2.5

SMILES: Cn1c(=O)nc(-c2ccccc2)c2cc(S(C)(=O)=O)ccc21
- logP [15]: 0.59

SMILES: CCN(CC)C(=O)COC(=O)C(C)c1ccc2cc(C(C)=O)ccc2c1 (stereo unspecified)
- logD [14]: 3.32

SMILES: CCCCOC(=O)c1ccccc1C(=O)OCCCC
- logP [11]: 4.39

SMILES: COC(=O)[C@H](CC(C)C)NC(C)=O
- logD [4]: 0.84

SMILES: Nc1ccc(CCO)cc1
- logD [6]: 0.1

SMILES: O=C1NC(=O)C(c2ccccc2)(c2ccccc2)N1S(=O)(=O)c1ccc(Cl)cc1
- logP [13]: 3.48

SMILES: Cc1ccc(C=C2C(=O)[C@]3(C)CCC2C3(C)C)cc1
- logP [11]: 5.13

SMILES: CCCCCCCCOCCOCCOCCO
- logP [16]: 2.84

SMILES: CC(C)(CCC(CO[N+](=O)[O-])O[N+](=O)[O-])C(=O)Oc1ccccc1C(=O)O (stereo unspecified)
- logP [12]: 3.33

SMILES: C=CCOc1ccccc1OCC(CNC(C)C)OC(=O)C(C)C (stereo unspecified)
- logP [2]: 3.77

SMILES: COC(=O)[C@H](C)NC(C)=O
- logD [4]: -0.57

SMILES: O=C(CCCC(CO[N+](=O)[O-])O[N+](=O)[O-])Oc1ccccc1C(=O)O (stereo unspecified)
- logP [12]: 2.62

SMILES: COc1ccc(C(C[N+](=O)[O-])c2ccc(OC)cc2)cc1
- logP [1]: 3.57

SMILES: Brc1cc2oc3ccc(Br)c(Br)c3c2cc1Br
- logP [8]: 6.2

SMILES: C=CCOc1ccccc1OCC(CNC(C)C)OC(=O)CCC (stereo unspecified)
- logP [2]: 3.95

SMILES: Nc1ccc(CO)cc1
- logD [6]: -0.22

SMILES: Cc1ccccc1S(=O)(=O)N1C(=O)NC(=O)C1(c1ccccc1)c1ccccc1
- logP [13]: 4

SMILES: CCN(CC)CCNC(=O)c1ccc(NS(C)(=O)=O)cc1
- logP [5]: 1.36

SMILES: c1ccc2c(c1)ccc1nc3c(ccc4ccccc43)cc12
- logP: 5.38

SMILES: O=C(CCO[N+](=O)[O-])Oc1ccccc1C(=O)O
- logP [12]: 1.6

SMILES: CC(C)NCC(O)c1ccc(NS(C)(=O)=O)cc1 (stereo unspecified)
- logP [5]: 0.53

SMILES: Clc1cc(Cl)nc(Cl)c1
- logP [7]: 2.68

SMILES: c1ccc2c(c1)Cc1cccnc1-2
- logP: 2.78

SMILES: CCCCCCCCCCCCCCOCCOCCOCCOCCOCCOCCOCCOCCO
- logP [16]: 5.65

SMILES: Cn1c(=O)nc(-c2ccccc2)c2ccc(Cl)cc21
- logP [15]: 2.36

SMILES: C=CCOc1ccccc1OCC(CNC(C)C)OC(=O)c1ccc([N+](=O)[O-])cc1 (stereo unspecified)
- logP [2]: 5.22

SMILES: CC1CC2OC(=O)C3(C)C2C(OC3(C)O)C2(C)C(=O)C=CC12 (stereo unspecified)
- logP [9]: 0.3

SMILES: CC(=O)c1ccc2cc(C(C)C(=O)OCC(=O)N(CCO)CCO)ccc2c1 (stereo unspecified)
- logD [14]: 1.7

SMILES: Cc1ccccc1OCC(O)CNCCOc1ccc(C(N)=O)cc1 (stereo unspecified)
- logP [5]: 2.19

SMILES: Brc1cc2c(cc1Br)Oc1cc(Br)c(Br)cc1O2
- logP [8]: 6.5

SMILES: CN(C)C(=O)COC(=O)c1ccccc1O
- logD [14]: 1.21

SMILES: CCCCCCOCCOCCOCCOCCOCCO
- logP [16]: 1.24

SMILES: COc1ccc2c(c1)c(-c1ccccc1)nc(=O)n2C
- logP [15]: 1.91

SMILES: CCC(NC(C)=O)C(=O)OC (stereo unspecified)
- logD [4]: -0.17

SMILES: c1ccc2c(c1)ccc1nc3ccc4ccccc4c3cc12
- logP: 5.31

SMILES: O=C(CCCCCCO[N+](=O)[O-])Oc1ccccc1C(=O)O
- logP [12]: 3.22

SMILES: Brc1cc2oc3cc(Br)c(Br)c(Br)c3c2cc1Br
- logP [8]: 7.2

SMILES: CN(N=O)C(=O)N(C)c1ccccc1
- logD [10]: 1.58

SMILES: C=C1C(=O)O[C@@H]2C[C@@H](C)[C@@H]3C=CC(=O)[C@@]3(C)[C@@H](OC(=O)CCCC(=O)O[C@H]3[C@@H]4C(=C)C(=O)O[C@@H]4C[C@@H](C)[C@@H]4C=CC(=O)[C@]43C)[C@H]12
- logP [9]: 1.37
